“Also recorded” adds a separate entry of the source.
Legend:
mouse neonatal calvariae = assay: Calvarial organotypic bone growth assay (ex vivo); set-up: species or system mouse (Balb/c); conditions: ex vivo culture 10 days, FIG. 7; for bone formation in calvariae: above free BP or untreated
Procedure: Anexvivo model of cultured mouse neonatal calvariae to assess bone anabolic activity of each compound was performed as previously described by Garrett, I et al., (Methods Mol Med, 2003. 80: p. 183-198).
Briefly fifteen newborn, 4 day old Balb/c pubs were used for these experiments. Calvarial bones were dissected under sterile conditions and placed on sterile grids in 12 well plates containing culture media. Calvarial bones were cultured for 10 days in the presence of free γToc, BP-γToc or free BP. Bone morphogenetic protein 2 (BMP-2) was used as a positive control, with known bone anabolic activity in this assay.
Treatments were carried out in quadruplicate as shown below. Calvarial bones were embedded in paraffin wax and sections were stained with haematoxylin and eosin stain (H&E) and analysed using the nanozoom image analysis software.
• Untreated • Bpp(OEt) (BP) (15 μM) • BP (20 μM) • γ-Tocotrienol (15 μM) • γ-Tocotrienol (20 μM) • γ-Tocotrienol (100 μM) • BP-γ-tocotrienol conjugate (15 μM) • BP-γTocotrienol conjugate (20 μM) • BP-γ-Tocotrienol conjugate (100 μM) • BMP-2 (50 ng/ml)
New bone formation in treated calvariae was assessed by histological assessment of stained sections.

RAW264.7 cells = assay: In vitro osteoclastogenesis of RAW264.7 (TRAP staining); assay type: cell-based, murine; conditions: RANKL-differentiated; γ-tocopherol at 1 μg/ml and 201 μg/ml; bpp(OEt) at increasing concentrations; FIG. 4
Procedure: Human peripheral blood mononuclear cells (PBMCs) and the RAW264.7 murine monocytic cell line were differentiated into osteoclast-like cells in the presence of RANKL plus M-CSF and have been used as model systems of osteoclastogenesis. Osteoclast-like cells, from Giant Cell Tumours (GCT) of bone specimens from three independent donors were used to investigate the effect of compounds of the invention on the bone resorbing activity of mature osteoclasts.
Cells were cultured in 96-well plates at a density of 1×10^4 cells/well in DMEM medium with 10% FCS, L-glutamine (2 mM) and Hepes (20 mM). Cells were allowed to attach for 4 hrs before treatment with RANKL (50 ng/ml) in the presence or absence of increasing concentrations of compounds of the invention as above. Medium and treatments were replaced on day three and TRAP activity determined on day 5. The overall number of viable cells were determined by crystal violet staining.
Osteoclast cultures established by the differentiation of RAW264.7 cells in wells were fixed and stained for tartrate resistant acid phosphatase (TRAP) as recommended by the manufacturer on days 4 and 5. TRAP positive cells were visualised by light microscopy and images taken with a digital camera.

MCF-7 cells = assay: Cell viability, crystal violet colorimetric assay; assay type: cell-based; conditions: 72 hrs; for IC50: tested at 0.02-0.1 mM, unstarred values
Procedure: (§1) Immortalised osteolytic metastatic breast cancer cell lines, a) hormone-dependent MCF-7 and b) hormone refractory MDA-MB231, together with the daughter line MDA-MB231TXSA were incubated with 5 gradual concentrations of compounds of the invention as described below. Cell viability was assessed with the crystal violet colorimetric assay and IC50s were evaluated.
(§2) Medium was removed from cell cultures and cells were fixed with 4% v/v formaldehyde for 5 mins at room temperature. Formalin was then removed and CV added for 10 mins at room temperature followed by several washes with dsH2O. Samples were allowed to dry overnight. The following day, 10% acetic acid was added for 15 mins and optical density at 620 nm was measured. Optical densities versus compound concentrations were plotted in graphs and IC50s estimated by linear regression analysis using the WorkOut (VictorX4) software.
MCF-7, MDA-MB231 and MDA-MB231TXSA cells were seeded in 96-well-plates and allowed to attach overnight. […]
(§3) Cells were cultured in the presence of the compounds for 72 hrs and viability was assessed on day 3 by crystal violet assay. The cell lines were selected for their high bone metastatic potential. The fluorescently transfected line MB231TXSA, derived from line MB231 is also used in animal studies (WP7).

[1] = tested on: metastatic breast cancer cell lines (MCF-7, MDA-MB231, MDA-MB231TXSA); assay: Cell viability / antiproliferative activity, breast cancer lines; assay type: cell-based
Procedure: as §1, §2
MCF-7, MDA-MB231 and MDA-MB231TXSA cells were seeded in 96-well-plates and allowed to attach overnight. The following day media were replaced with fresh media containing the following compounds: Both free tetraethyl methylbisphosphonate (bpp(OEt)) and bpp(OEt) in 1:1 combination with the free chromanol and the biphosphonate conjugates were tested at 5 gradual concentrations of: 0.02, 0.04, 0.06, 0.08 and 0.1 mM.
as §3

[2] = tested on: Caspase-3 activity in MB231 breast cancer cell-line; assay: Caspase-3 enzymatic activity assay; assay type: cell-based
Procedure: Cells were grown in 12 well-plates in the presence of IC50 concentrations of compounds of the invention or culture medium with 0.1% v/v ethanol as control and were washed with PBS and incubated with lysis buffer for 15 mins at 4° C. Lysates were centrifuged at 15000 g. 20 μl of each lysate suspension was incubated with 100 μl of protease buffer containing 10 μM of fluorescent substrate zDEVD-AFC (3 samples/lysate) for 4 hrs at room temperature. Caspase-3 enzymatic activity was measured every 1 hr by fluorescence with excitation at 405 nm and emission at 515/30 nm.
Fluorescence measurements were plotted in graphs against time and were statistically analysed by two-way ANOVA followed by Bonferroni post-tests to identify statistically significant apoptotic activities of compounds of the invention (see FIG. 3).

Row | Compound | bone formation in calvariae (mouse neonatal calvariae) | osteoclastogenesis of Raw264.7 (RAW264.7 cells) | EC50 (MCF-7 cells; Exp.1, * denotes EC50 value, read-out: EC50 value (starred) MCF-7) [µM] | IC50 (MCF-7 cells; Exp.2) [µM] | antiproliferative activity compared with bpp(OEt) ([1]; esterified compounds and 1:1 mixtures) | antiproliferative activity compared with γ-tocopherol ([1]; upon esterification of γ-tocopherol) | effect on cell viability ([1]; viability assays and IC50s, 72 hrs) | bone formation compared with free γToc and BMP-2 positive control (mouse neonatal calvariae; listed as BP-γToc) | pro-apoptotic activity (Caspase-3 activity) ([2]; IC50 concentrations, two-way ANOVA with Bonferroni post-tests) | time-point at which the increased Caspase-3 activity was present ([2]; measured every 1 hr for 4 hrs) [h] | IC50 (MCF-7 cells; Exp.1) [µM]
1 | Cc1c(O)cc2c(c1C)O[C@](C)(CCC[C@H](C)CCC[C@H](C)CCCC(C)C)CC2 [γ-toc, γ-tocopherol, reference compound] | significantly increased bone formation | increased osteoclastogenesis | 439 | 128 | – | – | – | – | – | – | –
2 | CCOP(=O)(OCC)C(CCC(=O)Oc1cc2c(c(C)c1C)OC(C)(CCCC(C)CCCC(C)CCCC(C)C)CC2)P(=O)(OCC)OCC (stereo not shown) [γ-toc-bpp(OEt), γ-tocopheryl bisphosphonic ester] | significantly increased bone formation | – | – | 81.5 | increased | increased | reduced cell viability | far superior to the free γToc; also recorded: even greater than that seen with the BMP-2 positive control | statistically significant pro-apoptotic activities | 3 | 114

Reference: patent US11400160B2, “Multifunctional conjugates” (E.P.O.S IASIS Research and Development Limited, priority 2017, dated 2022)
